# Laboratory results from patent publication US10947260B2, “Phosphinolactone derivatives and pharmaceutical uses thereof” (INSTITUT NATIONAL DE LA SANTE ET DE LA RECHERCHE MEDICALE …, priority 2016, dated 2021).
# How the values were obtained:
# mice = experiment: Forced swim test; assay type: in vivo; conditions: 5 mg/kg
# Protocol: FIG. 13: Assays of compound 3b as positive modulator of the sigma-1 protein. […] Male Swiss mice aged 7 weeks (n=10-12 per group) were forced to swim for 15 min on Day 1 and 6 min on Day 2. They were given NE-100 (10 mg/kg ip), 10 min before compound 3b (10 mg/kg ip) and 20 min before the session of Day 2. Immobility was measured over the last 5 minutes of the session. The vehicle solution was distilled water. F(3.42)=4.45, p<0.01; **p<0.01 vs. group V/V, ##p<0.01 vs. group V/3b, Dunnet test. […] Wild-type mice (Wt, n=14-15) and S1R KO mice (n=9-10) were forced to swim 15 min on Day 1 and 6 min on Day 2. They were given compound 3b (10 mg/kg ip) 20 min before the session on Day 2. Immobility was measured during the last 5 minutes of the session. The vehicle solution was distilled water. F(3.49)=6.64, p<0.001; **p<0.01 vs. group Wt/V, Dunnett test. […] Male Swiss mice aged 7 weeks (n=8-23 per group) were forced to swim for 15 min on Day 1 and 6 min on Day 2. They were given igmesine (10, 30 mg/kg ip) and/or compound 3b (10 mg/kg ip) 20 min before the session on Day 2. NE-100 (10 mg/kg ip) was injected 10 min before igmesine and compound 3b. Immobility was measured during the last 5 minutes of the session. The vehicle solution was distilled water. F(6.90)=5.59, p<0.0001; ***p<0.001 vs. group V, ##p<0.01 vs. group V/Igmesine (10)+3B (5), Dunnett test.
# APPSwe mice = experiment: Spatial learning in pool, APPSwe mice; assay type: in vivo
# Protocol: FIG. 9: Spatial learning in pool (a-c) and object recognition (d-f) for APPSwe mice after 2-month treatment with compound 3b. Pool: acquisition profiles of WT mice treated with V and 3b (2 mg/kg) (a) or APPSwe mice (b). (c) Presence in training quadrant (T) and mean in the other quadrants (o) during trial test performed 48 h after the last training session. Friedman non-parametric ANOVA with repeated measures: Fr=21.7, p<0.001 for the group WT/V, Fr=21.8, p<0.001 for the group WT/3b at (a); Fr=13.0, p<0.05 for group APPSwe/V, Fr=12.2, p<0.05 for group APPSwe/3b at (b). Object recognition: Number of contacts with the objects during sessions 2 and 3 (d) and preferences for object at position 2 computed as contacts (e) or contact time (f). ^∘ p<0.05, ^∘∘ p<0.01 compared with chance level: 15 s at (c), 50% at (e, f), One Sample t-test. ^$ p<0.05, ^$$ p<0.01, ^$$$ p<0.001 compared with the mean of the other quadrants (o) at (c). *p<0.05 compared with group WT/V at (d).
# FIG. 11: Spatial learning in pool (a-c) and object recognition (d-f) for APPSwe mice after 2-month treatment with compound 3c. Pool: acquisition profiles of WT mice treated with V and 3c (2 mg/kg) (a) or APPSwe mice (b). (c) Presence in training quadrant (T) and mean in the other quadrants (o) during the trial test performed 48 h after the last training session. Friedman non-parametric ANOVA with repeated measures: Fr=20.7, p<0.001 for group WT/V, Fr=17.5, p<0.001 for group WT/3c at (a); Fr=11.4, p<0.05 for group APPSwe/V, Fr=13.6, p<0.01 for group APPSwe/3b at (b). […]
# The pool was a circular water chamber (diameter 140 cm, height 40 cm). […] Swims could be recorded using Videotrack® ViewPoint software, (Champagne-au-Mont-d'Or, France), with trajectories analysed for time and distance. […]
# Acquisition phase: this consisted of 3 swims per day for 5 days with an interval of 20 min. […] Swim latency was measured. […] The median of swim times was calculated for each day and expressed for the experimental group as a mean±SEM.
# Recall phase: a trial test was conducted […] after the last acquisition session. […] The session was monitored by video and the time spent in the training quadrant (where the platform had been placed) was measured.
# After 2-month treatment, the mice were examined with a complex long-term spatial learning test, the locating of an invisible platform in a circular pool 1.5 m in diameter, followed by the object recognition test. […] 48 h after the last acquisition session, the platform was withdrawn from the pool and the time spent in each of the quadrants of the pool was analysed. […]
Structure (SMILES),activity in forced swim test (mice),spatial performance of WT mice at trial test (APPSwe mice; 2 mg/kg/j IP),spatial performance of WT mice at trial test (APPSwe mice; 1 mg/kg/d),"pool acquisition profile, APPSwe animals (APPSwe mice; 1 mg/kg/d, 2-month treatment)","presence in the training quadrant at trial test, APPSwe mice (APPSwe mice; 1 mg/kg/d, 48 h after last training)"
"CC1(C)COP(=O)(c2cccc(Cl)c2)C(C)(C)N1 (racemic) [Compound 3b, (±)-2-(3-Chlorophenyl)-2-oxo-3,3,5,5-tetramethyl-[1,4,2]-oxazaphosphinane]",not active,decrease is noted in spatial performance,–,–,–
"CC1(C)COP(=O)(c2ccc(Cl)cc2)C(C)(C)N1 (racemic) [Compound 3c, (±)-2-(4-Chlorophenyl)-2-oxo-3,3,5,5-tetramethyl-[1,4,2]-oxazaphosphinane]",–,–,decrease is noted in spatial performance,did not affect the acquisition profile,significantly restored preferred presence in the training quadrant
